Values of other authors, collected in patent publication US20220016082A1, “COMBINATION THERAPIES FOR HIGH AND VERY HIGH RISK MDS” (MEI Pharma, Inc., priority 2018, published 2022).

How the values were obtained:
MDS = conditions: N = 179
[1] = tested on: Higher-Risk Myelodysplastic Syndromes and Chronic Myelomonocytic Leukemia; conditions: arms N = 92 / 93 / 92; total N = 277

Nc1ncn([C@@H]2O[C@H](CO)[C@@H](O)[C@H]2O)c(=O)n1 [AZA Monotherapy, 5-azacytidine]
CR (of CR + PR) (MDS): 17%
CR + PR (MDS): 29%
HI (MDS): 49%
PR (of CR + PR) (MDS): 12%
CR (of CR/PR/HI) [1]: 24%
HI (of CR/PR/HI) [1]: 14%
Marrow CR [1]: 12%
ORR = CR + PR + mCR [1]: 38%
PR (of CR/PR/HI) [1]: 0%
